According to PubChem BioAssay (NCI):
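Assay format: 96-well plates, 48-hour exposure. TGI is the concentration that stops growth completely.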

Assays:
Experiment in all cases: NCI tumour cell line growth inhibition, 48 h
EKVX NSCLC = test system: EKVX NSCLC
786-0 renal = test system: 786-0 renal
HOP-62 NSCLC = test system: HOP-62 NSCLC
SF-268 CNS = test system: SF-268 CNS
NCI-H226 lung = test system: NCI-H226 lung
DU-145 prostate = test system: DU-145 prostate
MALME-3M melanoma = test system: MALME-3M melanoma
SK-MEL-2 melanoma = test system: SK-MEL-2 melanoma
NCI-H23 lung = test system: NCI-H23 lung
RXF 393 renal = test system: RXF 393 renal
CAKI-1 renal = test system: CAKI-1 renal
HCT-15 colon = test system: HCT-15 colon
OVCAR-4 ovarian = test system: OVCAR-4 ovarian
CCRF-CEM leukemia = test system: CCRF-CEM leukemia
SR leukemia = test system: SR leukemia
DMS 114 small cell lung = test system: DMS 114 small cell lung
SK-OV-3 ovarian = test system: SK-OV-3 ovarian
HT29 colon = test system: HT29 colon
SNB-78 CNS = test system: SNB-78 CNS
UACC-257 melanoma = test system: UACC-257 melanoma
A498 renal = test system: A498 renal
SF-295 CNS = test system: SF-295 CNS
SNB-75 CNS = test system: SNB-75 CNS
SW-620 colon = test system: SW-620 colon
SK-MEL-5 melanoma = test system: SK-MEL-5 melanoma
LOX IMVI melanoma = test system: LOX IMVI melanoma
IGROV1 ovarian = test system: IGROV1 ovarian
UACC-62 melanoma = test system: UACC-62 melanoma
M14 melanoma = test system: M14 melanoma
XF 498 CNS = test system: XF 498 CNS
ACHN renal = test system: ACHN renal
UO-31 renal = test system: UO-31 renal
SN12C renal = test system: SN12C renal
HL-60(TB) leukemia = test system: HL-60(TB) leukemia
KM20L2 colon = test system: KM20L2 colon
OVCAR-8 ovarian = test system: OVCAR-8 ovarian
OVCAR-5 ovarian = test system: OVCAR-5 ovarian
NCI-H460 lung = test system: NCI-H460 lung
TK-10 renal = test system: TK-10 renal
SK-MEL-28 melanoma = test system: SK-MEL-28 melanoma
K-562 leukemia = test system: K-562 leukemia
NCI-H522 lung = test system: NCI-H522 lung
HOP-18 NSCLC = test system: HOP-18 NSCLC
LXFL 529 NSCLC = test system: LXFL 529 NSCLC
COLO 205 colon = test system: COLO 205 colon
SF-539 CNS = test system: SF-539 CNS
PC-3 prostate = test system: PC-3 prostate
U251 CNS = test system: U251 CNS
OVCAR-3 ovarian = test system: OVCAR-3 ovarian
RPMI-8226 leukemia = test system: RPMI-8226 leukemia
SNB-19 CNS = test system: SNB-19 CNS
HOP-92 NSCLC = test system: HOP-92 NSCLC
KM12 colon = test system: KM12 colon
A549 NSCLC = test system: A549 NSCLC
HCC-2998 colon = test system: HCC-2998 colon
DMS 273 small cell lung = test system: DMS 273 small cell lung
MOLT-4 leukemia = test system: MOLT-4 leukemia
HCT-116 colon = test system: HCT-116 colon
M19-MEL melanoma = test system: M19-MEL melanoma
DLD-1 colon = test system: DLD-1 colon
RXF-631 renal = test system: RXF-631 renal

## COc1ccc(OC)c(/C=C/NC=O)c1
EKVX NSCLC
  TGI: > 100 µM
786-0 renal
  TGI: > 100 µM
HOP-62 NSCLC
  TGI: > 100 µM
SF-268 CNS
  TGI: > 100 µM
NCI-H226 lung
  TGI: > 100 µM
DU-145 prostate
  TGI: > 100 µM
MALME-3M melanoma
  TGI: > 100 µM
SK-MEL-2 melanoma
  TGI: > 100 µM
NCI-H23 lung
  TGI: > 100 µM
RXF 393 renal
  TGI: > 100 µM
CAKI-1 renal
  TGI: > 100 µM
HCT-15 colon
  TGI: > 100 µM
OVCAR-4 ovarian
  TGI: > 100 µM
CCRF-CEM leukemia
  TGI: > 100 µM
SR leukemia
  TGI: > 31.6 µM
DMS 114 small cell lung
  TGI: > 100 µM
SK-OV-3 ovarian
  TGI: > 100 µM
HT29 colon
  TGI: > 100 µM
SNB-78 CNS
  TGI: > 100 µM
UACC-257 melanoma
  TGI: > 100 µM
A498 renal
  TGI: > 100 µM
SF-295 CNS
  TGI: > 100 µM
SNB-75 CNS
  TGI: > 100 µM
SW-620 colon
  TGI: > 100 µM
SK-MEL-5 melanoma
  TGI: > 100 µM
LOX IMVI melanoma
  TGI: > 100 µM
IGROV1 ovarian
  TGI: > 100 µM
UACC-62 melanoma
  TGI: > 100 µM
M14 melanoma
  TGI: > 100 µM
XF 498 CNS
  TGI: > 100 µM
ACHN renal
  TGI: > 100 µM
UO-31 renal
  TGI: > 100 µM
SN12C renal
  TGI: > 100 µM
HL-60(TB) leukemia
  TGI: > 100 µM
KM20L2 colon
  TGI: > 100 µM
OVCAR-8 ovarian
  TGI: > 100 µM
OVCAR-5 ovarian
  TGI: > 100 µM
NCI-H460 lung
  TGI: > 100 µM
TK-10 renal
  TGI: > 100 µM
SK-MEL-28 melanoma
  TGI: > 100 µM
K-562 leukemia
  TGI: > 100 µM
NCI-H522 lung
  TGI: > 100 µM
HOP-18 NSCLC
  TGI: > 100 µM
LXFL 529 NSCLC
  TGI: > 100 µM
COLO 205 colon
  TGI: > 100 µM
SF-539 CNS
  TGI: > 100 µM
PC-3 prostate
  TGI: > 100 µM
U251 CNS
  TGI: > 100 µM
OVCAR-3 ovarian
  TGI: > 100 µM
RPMI-8226 leukemia
  TGI: > 100 µM
SNB-19 CNS
  TGI: > 100 µM
HOP-92 NSCLC
  TGI: > 100 µM
KM12 colon
  TGI: > 100 µM
A549 NSCLC
  TGI: > 100 µM
HCC-2998 colon
  TGI: > 100 µM
DMS 273 small cell lung
  TGI: > 100 µM
MOLT-4 leukemia
  TGI: > 100 µM
HCT-116 colon
  TGI: > 100 µM
M19-MEL melanoma
  TGI: > 100 µM
DLD-1 colon
  TGI: > 100 µM

## NCC(=O)NC(CCCC(NC(=O)CN)P(=O)(O)O)P(=O)(O)O (stereo unspecified)
EKVX NSCLC
  TGI: > 100 µM
HOP-62 NSCLC
  TGI: > 100 µM
NCI-H226 lung
  TGI: > 100 µM
NCI-H23 lung
  TGI: > 100 µM
RXF 393 renal
  TGI: > 100 µM
CCRF-CEM leukemia
  TGI: > 100 µM
SR leukemia
  TGI: > 100 µM
DMS 114 small cell lung
  TGI: > 100 µM
SK-OV-3 ovarian
  TGI: > 100 µM
HT29 colon
  TGI: > 100 µM
SNB-78 CNS
  TGI: > 100 µM
UACC-257 melanoma
  TGI: > 100 µM
A498 renal
  TGI: > 100 µM
SF-295 CNS
  TGI: > 100 µM
RXF-631 renal
  TGI: > 100 µM
IGROV1 ovarian
  TGI: > 100 µM
UACC-62 melanoma
  TGI: > 100 µM
M14 melanoma
  TGI: > 100 µM
ACHN renal
  TGI: > 100 µM
HL-60(TB) leukemia
  TGI: > 100 µM
KM20L2 colon
  TGI: > 100 µM
OVCAR-8 ovarian
  TGI: > 100 µM
OVCAR-5 ovarian
  TGI: > 100 µM
NCI-H460 lung
  TGI: > 100 µM
TK-10 renal
  TGI: > 100 µM
SK-MEL-28 melanoma
  TGI: > 100 µM
NCI-H522 lung
  TGI: > 100 µM
U251 CNS
  TGI: > 100 µM
HOP-92 NSCLC
  TGI: > 100 µM
KM12 colon
  TGI: > 100 µM
A549 NSCLC
  TGI: > 100 µM
DMS 273 small cell lung
  TGI: > 100 µM
MOLT-4 leukemia
  TGI: > 100 µM
HCT-116 colon
  TGI: > 100 µM
M19-MEL melanoma
  TGI: > 100 µM

## O=C1c2ccccc2S[C@@H](O)[C@@H]2CCCN12
EKVX NSCLC
  TGI: > 100 µM
786-0 renal
  TGI: > 100 µM
HOP-62 NSCLC
  TGI: > 100 µM
SF-268 CNS
  TGI: > 100 µM
MALME-3M melanoma
  TGI: > 100 µM
SK-MEL-2 melanoma
  TGI: > 100 µM
NCI-H23 lung
  TGI: > 100 µM
RXF 393 renal
  TGI: > 100 µM
HCT-15 colon
  TGI: > 100 µM
CCRF-CEM leukemia
  TGI: > 100 µM
SR leukemia
  TGI: > 100 µM
DMS 114 small cell lung
  TGI: > 100 µM
SK-OV-3 ovarian
  TGI: > 100 µM
SNB-78 CNS
  TGI: > 100 µM
UACC-257 melanoma
  TGI: > 100 µM
SF-295 CNS
  TGI: > 100 µM
SW-620 colon
  TGI: > 100 µM
SK-MEL-5 melanoma
  TGI: > 100 µM
LOX IMVI melanoma
  TGI: > 100 µM
IGROV1 ovarian
  TGI: 87.9 µM
UACC-62 melanoma
  TGI: > 100 µM
M14 melanoma
  TGI: > 100 µM
XF 498 CNS
  TGI: > 100 µM
ACHN renal
  TGI: > 100 µM
UO-31 renal
  TGI: > 100 µM
SN12C renal
  TGI: > 100 µM
HL-60(TB) leukemia
  TGI: > 100 µM
KM20L2 colon
  TGI: > 100 µM
OVCAR-8 ovarian
  TGI: > 100 µM
OVCAR-5 ovarian
  TGI: > 100 µM
NCI-H460 lung
  TGI: > 100 µM
TK-10 renal
  TGI: > 100 µM
SK-MEL-28 melanoma
  TGI: > 100 µM
K-562 leukemia
  TGI: > 100 µM
NCI-H522 lung
  TGI: > 100 µM
HOP-18 NSCLC
  TGI: > 100 µM
LXFL 529 NSCLC
  TGI: > 100 µM
COLO 205 colon
  TGI: > 100 µM
SF-539 CNS
  TGI: > 100 µM
U251 CNS
  TGI: > 100 µM
OVCAR-3 ovarian
  TGI: > 100 µM
RPMI-8226 leukemia
  TGI: > 100 µM
SNB-19 CNS
  TGI: > 100 µM
HOP-92 NSCLC
  TGI: > 100 µM
KM12 colon
  TGI: > 100 µM
A549 NSCLC
  TGI: > 100 µM
HCC-2998 colon
  TGI: > 100 µM
DMS 273 small cell lung
  TGI: > 100 µM
MOLT-4 leukemia
  TGI: > 100 µM
HCT-116 colon
  TGI: > 100 µM
M19-MEL melanoma
  TGI: > 100 µM
DLD-1 colon
  TGI: > 100 µM

## Cc1cc(NS(=O)(=O)c2ccc(NC(=O)c3cccc4c(=O)c5ccccc5[nH]c34)cc2)no1
EKVX NSCLC
  TGI: > 100 µM
786-0 renal
  TGI: 38.2 µM
HOP-62 NSCLC
  TGI: 50.6 µM
SF-268 CNS
  TGI: > 100 µM
NCI-H226 lung
  TGI: > 100 µM
MALME-3M melanoma
  TGI: > 100 µM
SK-MEL-2 melanoma
  TGI: > 100 µM
NCI-H23 lung
  TGI: > 100 µM
CAKI-1 renal
  TGI: > 100 µM
HCT-15 colon
  TGI: > 100 µM
OVCAR-4 ovarian
  TGI: > 100 µM
CCRF-CEM leukemia
  TGI: 94.2 µM
SR leukemia
  TGI: 80.8 µM
DMS 114 small cell lung
  TGI: > 100 µM
SK-OV-3 ovarian
  TGI: 72.7 µM
HT29 colon
  TGI: > 100 µM
SNB-78 CNS
  TGI: > 100 µM
UACC-257 melanoma
  TGI: > 100 µM
A498 renal
  TGI: 79 µM
SNB-75 CNS
  TGI: 85.4 µM
SW-620 colon
  TGI: > 100 µM
SK-MEL-5 melanoma
  TGI: > 100 µM
LOX IMVI melanoma
  TGI: > 100 µM
IGROV1 ovarian
  TGI: > 100 µM
UACC-62 melanoma
  TGI: 66.8 µM
XF 498 CNS
  TGI: 55.4 µM
ACHN renal
  TGI: > 100 µM
UO-31 renal
  TGI: 72.8 µM
SN12C renal
  TGI: > 100 µM
HL-60(TB) leukemia
  TGI: 74.6 µM
KM20L2 colon
  TGI: > 100 µM
OVCAR-8 ovarian
  TGI: 67.4 µM
OVCAR-5 ovarian
  TGI: > 100 µM
NCI-H460 lung
  TGI: > 100 µM
TK-10 renal
  TGI: > 100 µM
SK-MEL-28 melanoma
  TGI: > 100 µM
K-562 leukemia
  TGI: > 100 µM
NCI-H522 lung
  TGI: 56.6 µM
HOP-18 NSCLC
  TGI: 28.2 µM
LXFL 529 NSCLC
  TGI: 89.2 µM
COLO 205 colon
  TGI: > 100 µM
SF-539 CNS
  TGI: > 100 µM
U251 CNS
  TGI: > 100 µM
OVCAR-3 ovarian
  TGI: 95.5 µM
RPMI-8226 leukemia
  TGI: > 100 µM
SNB-19 CNS
  TGI: > 100 µM
HOP-92 NSCLC
  TGI: > 100 µM
KM12 colon
  TGI: > 100 µM
A549 NSCLC
  TGI: > 100 µM
HCC-2998 colon
  TGI: > 100 µM
MOLT-4 leukemia
  TGI: > 100 µM
HCT-116 colon
  TGI: > 100 µM
M19-MEL melanoma
  TGI: > 100 µM
DLD-1 colon
  TGI: > 100 µM
